Test results: the NIST ThermoML archive (doi:10.1016/j.fluid.2009.08.023)

Details: Liquid, Closed cell (Static) method

FC(F)CC(F)(F)F [1,1,1,3,3-pentafluoropropane]
Details | vapor or sublimation pressure [kPa]
235.65 K | 6.9
237.61 K | 7.83
239.61 K | 8.89
241.65 K | 10.09
243.57 K | 11.33
245.57 K | 12.77
247.67 K | 14.43
249.72 K | 16.22
251.16 K | 17.6
251.64 K | 18.05
252.68 K | 19.12
253.7 K | 20.23
255.59 K | 22.39
256.66 K | 23.69
257.56 K | 24.84
259.6 K | 27.62
261.27 K | 30.07
261.47 K | 30.38
261.62 K | 30.62
263.88 K | 34.3
265.69 K | 37.48
266.4 K | 38.77
267.21 K | 40.32
267.51 K | 40.9
267.65 K | 41.19
269.61 K | 45.21
271.59 K | 49.58
271.73 K | 49.9
272.61 K | 51.93
273.73 K | 54.67
275.73 K | 59.81
277.71 K | 65.28
277.74 K | 65.39
279.71 K | 71.23
279.72 K | 71.27
281.62 K | 77.24
281.74 K | 77.66
282.67 K | 80.74
283.01 K | 81.9
283.62 K | 84.01
285.6 K | 91.2
287.57 K | 98.81
287.58 K | 98.82
287.63 K | 99.06
289.64 K | 107.32
291.68 K | 116.25
292.11 K | 118.22
292.56 K | 120.29
293.02 K | 122.46
294.05 K | 127.38
296.05 K | 137.42
297.68 K | 146.08
298.07 K | 148.16
299.99 K | 158.97
302.22 K | 172.36
302.61 K | 174.75
302.82 K | 176.04
306.06 K | 197.31
308.24 K | 212.7
312.05 K | 241.93
314.67 K | 263.68
316.8 K | 282.34
318.62 K | 299.22
321.02 K | 322.69
324.94 K | 363.8
326.92 K | 386.02
328.21 K | 401
328.88 K | 409.17
332.34 K | 452.27
334.54 K | 481.58
335.06 K | 488.66
337.05 K | 516.55
337.07 K | 516.91
337.71 K | 526.04
339.46 K | 552.03
340.65 K | 570.3
340.66 K | 570.45
343.11 K | 609.1
344.74 K | 636.25
345.11 K | 642.16
347.04 K | 675.54
348.61 K | 703.69
349.13 K | 713.08
349.32 K | 716.41
351.61 K | 759.56
363.48 K | 1014
365.4 K | 1060.6
368.8 K | 1147.1
371.52 K | 1219.9
373.61 K | 1278.4
374.58 K | 1306
375.9 K | 1344.6
378.5 K | 1422.7
380.59 K | 1487.9
380.96 K | 1500
383.23 K | 1573.6
386.07 K | 1669.5
388.53 K | 1757
391.15 K | 1853.4
393.55 K | 1945
394.58 K | 1985.6
396.2 K | 2050.7
398.69 K | 2153.7
401.04 K | 2254.6
402.98 K | 2340.8
404.3 K | 2400.9
404.32 K | 2401.7
405.05 K | 2435.4
407.08 K | 2531.5
408.53 K | 2601.7
409.04 K | 2626.5
409.43 K | 2646
411.13 K | 2731.4
413.25 K | 2841.1
414.11 K | 2886.6
414.65 K | 2916.1
415.27 K | 2949.2
417.28 K | 3060.7
419.31 K | 3176.2
420.09 K | 3221.7
422.02 K | 3337.1
422.45 K | 3363
424.01 K | 3459.9
424.32 K | 3479.2
424.52 K | 3491.6
426.47 K | 3617.9
427.08 K | 3658.3
